Laboratory results taken from the NIST ThermoML archive (doi:10.1021/je800348s).
Numbers after ± are expanded uncertainties.

Assay: xn = mol fraction of the nth substance listed
Details: 101 kPa, Liquid; for mass density: Vibrating tube method

C1C[C@@H]2[C@H]3CC[C@H](C3)[C@@H]2C1 [exo-tetrahydrodicyclopentadiene] + CCCCCCCCCC
Details	mass density, 293.15 K [kg/m3]	mass density, 298.15 K [kg/m3]	mass density, 303.15 K [kg/m3]	mass density, 313.15 K [kg/m3]	viscosity, 293.15 K [mPa·s]	viscosity, 298.15 K [mPa·s]	viscosity, 303.15 K [mPa·s]	viscosity, 313.15 K [mPa·s]
x2 = 0	935.2 ± 8	931.4 ± 8	927.7 ± 8	922.2 ± 8	3.064 ± 0.077	2.74 ± 0.069	2.514 ± 0.063	2.27 ± 0.057
x2 = 0.095	912.7 ± 8	907.5 ± 8	905.4 ± 8	900.2 ± 8	2.631 ± 0.066	2.339 ± 0.059	2.191 ± 0.055	2.006 ± 0.051
x2 = 0.1934	890 ± 8	885.1 ± 8	882.8 ± 8	877.8 ± 8	2.26 ± 0.057	1.996 ± 0.05	1.889 ± 0.047	1.741 ± 0.044
x2 = 0.2908	868.3 ± 8	863.7 ± 8	861.2 ± 8	856.3 ± 8	1.964 ± 0.05	1.728 ± 0.044	1.638 ± 0.041	1.53 ± 0.039
x2 = 0.3902	846.8 ± 8	842.5 ± 8	839.8 ± 8	834.8 ± 8	1.717 ± 0.043	1.521 ± 0.038	1.441 ± 0.036	1.334 ± 0.034
x2 = 0.4893	826 ± 8	822 ± 8	819 ± 8	814 ± 8	1.525 ± 0.039	1.362 ± 0.034	1.287 ± 0.032	1.214 ± 0.031
x2 = 0.6147	800.7 ± 8	796.9 ± 8	793.7 ± 8	788.4 ± 8	1.348 ± 0.034	1.194 ± 0.03	1.143 ± 0.029	1.101 ± 0.028
x2 = 0.6905	786 ± 8	782.3 ± 8	779 ± 8	773.3 ± 8	1.245 ± 0.032	1.102 ± 0.028	1.058 ± 0.027	1.032 ± 0.026
x2 = 0.7895	767.4 ± 8	763.7 ± 8	760.3 ± 8	754.2 ± 8	1.13 ± 0.029	1.009 ± 0.026	0.9726 ± 0.025	0.9345 ± 0.024
x2 = 0.8952	748.2 ± 8	744.6 ± 8	740.9 ± 8	734.3 ± 8	1.032 ± 0.026	0.9181 ± 0.024	0.8852 ± 0.023	0.8537 ± 0.022

C1C[C@@H]2[C@H]3CC[C@H](C3)[C@@H]2C1 [exo-tetrahydrodicyclopentadiene] + CCCCCCCC
Details	mass density, 293.15 K [kg/m3]	mass density, 298.15 K [kg/m3]	mass density, 303.15 K [kg/m3]	mass density, 313.15 K [kg/m3]	viscosity, 293.15 K [mPa·s]	viscosity, 298.15 K [mPa·s]	viscosity, 303.15 K [mPa·s]	viscosity, 313.15 K [mPa·s]
x2 = 0	935.2 ± 8	931.4 ± 8	927.7 ± 8	922.2 ± 8	3.064 ± 0.077	2.74 ± 0.069	2.514 ± 0.063	2.27 ± 0.057
x2 = 0.117	906.1 ± 8	901 ± 8	898.5 ± 8	893.5 ± 8	2.353 ± 0.06	2.109 ± 0.053	1.945 ± 0.049	1.769 ± 0.045
x2 = 0.2275	879.1 ± 8	874.5 ± 8	871.8 ± 8	866.6 ± 8	1.836 ± 0.047	1.665 ± 0.042	1.553 ± 0.039	1.421 ± 0.036
x2 = 0.3384	852.4 ± 8	848.1 ± 8	845.4 ± 8	839.8 ± 8	1.47 ± 0.037	1.351 ± 0.034	1.272 ± 0.032	1.166 ± 0.03
x2 = 0.4431	827.7 ± 8	823.6 ± 8	820.7 ± 8	814.9 ± 8	1.216 ± 0.031	1.12 ± 0.029	1.056 ± 0.027	0.9677 ± 0.025
x2 = 0.5439	804.2 ± 8	800.3 ± 8	797.2 ± 8	791 ± 8	1.027 ± 0.027	0.9508 ± 0.025	0.8917 ± 0.023	0.8212 ± 0.022
x2 = 0.6417	781.8 ± 8	778 ± 8	774.8 ± 8	768.3 ± 8	0.8793 ± 0.023	0.8194 ± 0.022	0.7691 ± 0.02	0.7085 ± 0.019
x2 = 0.7361	760.4 ± 8	756.6 ± 8	753.2 ± 8	746.4 ± 8	0.7663 ± 0.02	0.7198 ± 0.019	0.6752 ± 0.018	0.6197 ± 0.017
x2 = 0.8265	740.3 ± 8	736.5 ± 8	732.9 ± 8	725.6 ± 8	0.6722 ± 0.018	0.6345 ± 0.017	0.5929 ± 0.016	0.5424 ± 0.015
x2 = 0.9143	721.1 ± 8	717.1 ± 8	713.3 ± 8	705.6 ± 8	0.5988 ± 0.016	0.5681 ± 0.016	0.5302 ± 0.015	0.4839 ± 0.014
